According to patent US20260115202A1, “TOPICAL COMPOSITIONS COMPRISING AN ESTETROL COMPONENT AND USE OF SAID COMPOSITIONS FOR WOUND HEALING” (NEURALIS SA, priority 2022, published 2026):

System: LPS-induced delayed wound healing mice model
Experiment: In vivo LPS-induced delayed wound healing model: wound histology and immunohistochemistry
Details: versus LPS/PBO
Text: The in vivo LPS-induced delayed wound healing model was reproduced as previously described (Crompton R, Williams H, Ansell D, Campbell L, Holden K, Cruickshank S, Hardman M J. Oestrogen promotes healing in a bacterial LPS model of delayed cutaneous wound repair. Lab Invest. 2016 April, 96 (4): 439-49).
Female wild-type (C57BL/6J) 8 weeks old mice were split into six groups (6 animals per experimental group): • Double placebo control (no LPS, placebo treatment), • LPS control (LPS, placebo treatment), • LPS with topical EstroGel (estradiol gel, contains 0.06% 17β-estradiol as hemihydrate in a hydro-alcoholic gel), • LPS with topical AG24 (E4 at 0.5%), • LPS with topical AG25 (E4 at 0.22%), • LPS with topical AG26 (E4 at 0.06%).
The day prior to wounding (day −1), all the animals were weighed and anaesthetised using oxygen and isoflurane (flow rate 1.25-2 L with 2-2.5% isoflurane depending on clinical signs). Animals were shaved and dorsal areas prepped. Wound positions (2 wounds) were marked on the dorsum of each animal. Animals received a first subcutaneous injection of 2 μg K. pneumoniae-derived LPS diluted in DPBS (1 μg per wound: Sigma Aldrich, UK: L4268) at the wound site, except the double placebo group that received DPBS only. A thin layer of EstroGel, AG24, AG25, AG26 or placebo were then applied to the dorsum of each animal, measured as 60 μl total (30 μl/wound). Animals recovered in a warming cabinet and were then single housed in fresh cages containing alpha pad, RO water, food, mash and a house. On day 0 (24 hours after first anaesthesia), mice were re-anaesthetised and dorsal skin cleaned with chlorhexidine wipes. Two 6 mm dorsal excisions were created. 2 μg LPS (1 μg per wound) was subcutaneously injected at the wound site as above, except for the double placebo mice that were injected with DPBS. […]
These are expressed in the increase in uterus weight. Next, we evaluated wound closure from histological samples. […] The degree of re-epithelialisation was determined as the length of neo-epidermis divided by the distance between the wound margins, multiplied by 100.

`C[C@]12CC[C@@H]3c4ccc(O)cc4CC[C@H]3[C@@H]1[C@@H](O)[C@@H](O)[C@@H]2O` [Formulation E4, 1,3,5 (10)-estratrien-3,15alpha, 16alpha, 17beta-tetrol] was tested. Which wound re-epithelialisation (day 5, K14 immunohistochemistry) did it give?
The wound re-epithelialisation was “promotes re-epithelialization”.

And the wound macrophage numbers (day 5, immunohistochemistry)?
Its wound macrophage numbers is “reduced numbers of wound macrophages”.

And the wound neutrophil numbers (day 5, immunohistochemistry)?
The wound neutrophil numbers was “reduced numbers of wound neutrophils”.
